Values of other authors, collected in paper PMC4232510, “Identification of Functionally Important Residues of the Rat P2X4 Receptor by Alanine Scanning Mutagenesis of the Dorsal Fin and Left Flipper Domains” (PLoS ONE, 2014).

Experiments:
Conditions in all cases: cited from earlier work
P2X4R H286A = test system: P2X4R H286A; set-up: method as in PMID 17663752, PMID 15632318, PMID 12819199, PMID 15246547
P2X3R N279A = test system: P2X3R N279A; set-up: method as in PMID 21098022
P2X3R E197A = test system: P2X3R E197A; set-up: method as in PMID 15475563; key: n.f.: non-functional mutants; ↑: mutant with significant increased EC50 in comparison to WT (values represent fold increase); ≈: close to WT receptor; D: affected time-constant of the desensitizing current response
P2X1R N290A = test system: P2X1R N290A; set-up: method as in PMID 16371009
P2X3R M200C = test system: P2X3R M200C; set-up: method as in PMID 24989924
P2X3R S269A = test system: P2X3R S269A; set-up: method as in PMID 16226373; key: n.f.: non-functional mutants; ↑: mutant with significant increased EC50 in comparison to WT (values represent fold increase); ≈: close to WT receptor; D: affected time-constant of the desensitizing current response
P2X2R N288A = test system: P2X2R N288A; set-up: method as in PMID 10940304
P2X3R S267A = test system: P2X3R S267A; set-up: method as in PMID 16120774; key: n.f.: non-functional mutants; ↑: mutant with significant increased EC50 in comparison to WT (values represent fold increase); ≈: close to WT receptor; D: affected time-constant of the desensitizing current response
P2X2R N202A = test system: P2X2R N202A; set-up: method as in PMID 10940304; key: n.f.: non-functional mutants; ↑: mutant with significant increased EC50 in comparison to WT (values represent fold increase); ≈: close to WT receptor; D: affected time-constant of the desensitizing current response
P2X4R I205A = test system: P2X4R I205A; set-up: method as in PMID 24943126
P2X4R L206A = test system: P2X4R L206A; set-up: method as in PMID 24943126; key: n.f.: non-functional mutants; ↑: mutant with significant increased EC50 in comparison to WT (values represent fold increase); ≈: close to WT receptor; D: affected time-constant of the desensitizing current response
P2X3R D266A = test system: P2X3R D266A; set-up: method as in PMID 15475563; key: n.f.: non-functional mutants; ↑: mutant with significant increased EC50 in comparison to WT (values represent fold increase); ≈: close to WT receptor; D: affected time-constant of the desensitizing current response
P2X3R T196A = test system: P2X3R T196A; set-up: method as in PMID 16226373; key: n.f.: non-functional mutants; ↑: mutant with significant increased EC50 in comparison to WT (values represent fold increase); ≈: close to WT receptor; D: affected time-constant of the desensitizing current response

In the case of `Nc1ncnc2c1ncn2[C@@H]1O[C@H](COP(=O)(O)OP(=O)(O)OP(=O)(O)O)[C@@H](O)[C@H]1O` [ATP], the “fold increase of EC50 for ATP in comparison to WT” value (“fold increase of EC50 for ATP” for short) (P2X4R H286A) is given as “H286A: ↑2–4x[10], [52], [57], [60]”, the “fold increase of EC50 for ATP” value (P2X3R N279A) is given as “N279A: ↑20x[4]” and the change in desensitization (P2X3R E197A) is given as “E197A: D[53]”. The “fold increase of EC50 for ATP” value (P2X1R N290A) was “N290A: ↑>50x[45]”, the “fold increase of EC50 for ATP” value (P2X3R M200C) was “M200C:↑8x[58]” and the change in desensitization (P2X3R S269A) was “S269A: D[54]”. For the same molecule, the “fold increase of EC50 for ATP” value (P2X2R N288A) was “N288A: ↑>100x[6]”, the “change in EC50 for ATP” value (P2X3R S267A) was “S267A: ≈[59]” and the “change in EC50 for ATP” value (P2X2R N202A) was “N202A: n.f.[6]”. The “fold increase of EC50 for ATP” value (P2X4R I205A) was “I205A: ↑2,5x[49]”, the “change in EC50 for ATP” value (P2X4R L206A) was “L206A: ≈[49]” and the change in desensitization (P2X3R D266A) was “D266A: D[53]”. For the same molecule, the “change in EC50 for ATP” value (P2X3R T196A) was “T196A: ≈[54]”.
